Measurements taken from patent US4107304A, “Oxo-imidazolidine substituted cephalosporins and antibacterial compositions and methods of combatting bacteria employing them” (Bayer Aktiengesellschaft, priority 1974, dated 1978).

Legend:
[1] = tested on: Streptococcus pyogenes W.; test: In vitro turbidity test, 24 h in Muller-Hinton broth; assay type: cell-based; settings: 100 μg/ml
Klebsiella pneumoniae = test: as above; assay type: cell-based; settings: 100 μg/ml, 1 × 10^5 to 2 × 10^5 bacteria per milliliter, freedom from turbidity = active
[2] = tested on: Neisseria catarrhalis sp.; test: as above; assay type: cell-based; settings: 100 μg/ml
Salmonella sp. = test: as above; assay type: cell-based; settings: 100 μg/ml
[3] = tested on: Bordetella bronchiseptica; test: as above; assay type: cell-based; settings: 100 μg/ml
Providencia = test: as above; assay type: cell-based; settings: 100 μg/ml
Shigella sp. = test: as above; assay type: cell-based; settings: 100 μg/ml
Escherichia coli BE = test: as above; assay type: cell-based; settings: 100 μg/ml
Haemophilis influenzae = test: as above; assay type: cell-based; settings: 100 μg/ml
[4] = tested on: Proteus, indole negative and indole positive sp.; test: as above; assay type: cell-based; settings: 100 μg/ml
Serratia marcescens = test: as above; assay type: cell-based; settings: 100 μg/ml
Lactobacillus sp. = test: as above; assay type: cell-based; settings: 100 μg/ml
Brucella sp. = assay type: cell-based; settings: 100 μg/ml, 24 hours
[5] = tested on: Enterobacter aerogenes sp.; test: In vitro turbidity test, 24 h in Muller-Hinton broth; assay type: cell-based; settings: 100 μg/ml
[6] = tested on: pasteurella pseudotuberculosis; assay type: cell-based; settings: 100 μg/ml, 24 hours
Enterococcus sp. = test: In vitro turbidity test, 24 h in Muller-Hinton broth; assay type: cell-based; settings: 100 μg/ml
[7] = tested on: Diplococcus pneumoniae sp.; test: as above; assay type: cell-based; settings: 100 μg/ml
[8] = tested on: Staphylococcus aureus 133; test: as above; assay type: cell-based; settings: 100 μg/ml
[9] = tested on: Corynebacterium pyogenes M.; test: as above; assay type: cell-based; settings: 100 μg/ml
[10] = tested on: Corynebacterium diphtheria gravis; test: as above; assay type: cell-based; settings: 100 μg/ml
Escherichia coli = test: Antibiotic activity of electropherogram spot; assay type: cell-based; settings: against Escherichia coli
Pseudomonas aeruginosa = test: Antibiotic activity of electropherogram spot; assay type: cell-based; settings: against Pseudomonas aeruginosa
B. subtilis = test: Antibiotic activity of electropherogram spot; assay type: cell-based; settings: against B. subtilis
[11] = Antibiotic activity of electropherogram spot (organism not stated); assay type: cell-based
Escherichia coli C 165 = test: Animal experiments with white mice, intraperitoneal infection, survival after 24 hours; assay type: in vivo, white mice of strain CF1; settings: C165, sc, subcutaneous, 1 administration 30 minutes after infection, dose at which 50% of infected animals survive, read-out: ED 50 after 24 hours
Procedure: (§1) The white mice of strain CF1 were infected intraperitoneally with the species of bacteria indicated. |Animal Experiments With White Mice |Determination of the ED 50 after 24 hours | Dose in mg of the cephalosporin from | Example 6 per kg of body weight |Germ (administered subcutaneously) |Therapy: 1 administration 30 minutes after infection. | The ED 50 is the dose at which 50% of the infected |animals still survive after 24 hours.

[12] = tested on: Staphylococcus aureus 133; test: as above; assay type: in vivo, white mice of strain CF1; settings: Staphylococcus aureus, 133, sc, subcutaneous, 1 administration 30 minutes after infection, dose at which 50% of infected animals survive, read-out: ED 50 after 24 hours
Procedure: as §1

Compound	degree of turbidity [1]	degree of turbidity (Klebsiella pneumoniae)	degree of turbidity [2]	degree of turbidity (Salmonella sp.)	degree of turbidity [3]	degree of turbidity (Providencia)	degree of turbidity (Shigella sp.)	degree of turbidity (Escherichia coli BE)	degree of turbidity (Haemophilis influenzae)	degree of turbidity [4]	degree of turbidity (Serratia marcescens)	degree of turbidity (Lactobacillus sp.)	degree of turbidity (Brucella sp.)	degree of turbidity [5]	degree of turbidity [6]	degree of turbidity (Enterococcus sp.)	degree of turbidity [7]	degree of turbidity [8]	degree of turbidity [9]	degree of turbidity [10]	also measured
CC(=O)OCC1=C(C(=O)O)N2C(=O)[C@@H](NC(=O)[C@H](NC(=O)N3CCN(C)C3=O)c3ccccc3)[C@H]2SC1 [Example 3, sodium 7-{D-α-[(3-methyl-2-oxo-imidazolidin-1-yl)-carbonylamino]-phenylacetamido}-3-acetoxymethyl-ceph-3-em-4-carboxylate]	free from turbidity	free from turbidity	free from turbidity	free from turbidity	free from turbidity	free from turbidity	free from turbidity	free from turbidity	free from turbidity	free from turbidity	free from turbidity	free from turbidity	free from turbidity	free from turbidity	free from turbidity	free from turbidity	free from turbidity	free from turbidity	free from turbidity	free from turbidity	–
CC(=O)OCC1=C(C(=O)O)N2C(=O)[C@@H](NC(=O)[C@H](NC(=O)N3CCNC3=O)c3ccccc3)[C@H]2SC1 [Example 1, sodium 7-{D-α-[(2-oxo-imidazolidin-1-yl)carbonylamino]-phenylacetamido}-3-acetoxymethyl-ceph-3-em-4-carboxylate]	–	–	–	–	–	–	–	–	–	–	–	–	–	–	–	–	–	–	–	–	antibiotic activity of the electropherogram spot (Escherichia coli): only one spot with antibiotic activity; antibiotic activity of the electropherogram spot (Pseudomonas aeruginosa): only one spot with antibiotic activity; antibiotic activity of the electropherogram spot (B. subtilis): only one spot with antibiotic activity
CC(=O)OCC1=C(C(=O)O)N2C(=O)[C@@H](NC(=O)[C@H](NC(=O)N3CCN(S(=O)(=O)c4ccccc4)C3=O)c3ccccc3)[C@H]2SC1 [Example 7, Sodium 7-{D-α-[(2-oxo-3-phenylsulphonyl-imidazolidin-1-yl)-carbonylamino]-phenylacetamido}-3-acetoxymethyl-ceph-3-em-4-carboxylate]	free from turbidity	free from turbidity	free from turbidity	free from turbidity	free from turbidity	free from turbidity	free from turbidity	free from turbidity	free from turbidity	free from turbidity	free from turbidity	free from turbidity	free from turbidity	free from turbidity	free from turbidity	free from turbidity	free from turbidity	free from turbidity	free from turbidity	free from turbidity	–
CC1=C(C(=O)O)N2C(=O)[C@@H](NC(=O)[C@H](NC(=O)N3CCNC3=O)c3ccccc3)[C@H]2SC1 [Example 2, 7-{D-α-[(2-Oxo-imidazolidin-1-yl)-carbonylamino]-phenylacetamido}-3-methyl-ceph-3-em-4-carboxylic acid]	–	–	–	–	–	–	–	–	–	–	–	–	–	–	–	–	–	–	–	–	antibiotic activity of the electropherogram spot [11]: only one spot with antibiotic activity
CC(=O)OCC1=C(C(=O)O)N2C(=O)[C@@H](NC(=O)[C@H](NC(=O)N3CCN(S(C)(=O)=O)C3=O)c3ccccc3)[C@H]2SC1 [Example 6, Sodium 7-{D-α-[(2-oxo-3-mesyl-imidazolidin-1-yl)-carbonylamino]-phenylacetamido}-3-acetoxymethyl-ceph-3-em-4-carboxylate]	free from turbidity	free from turbidity	free from turbidity	free from turbidity	free from turbidity	free from turbidity	free from turbidity	free from turbidity	free from turbidity	free from turbidity	free from turbidity	free from turbidity	free from turbidity	free from turbidity	free from turbidity	free from turbidity	free from turbidity	free from turbidity	free from turbidity	free from turbidity	ED50 (Escherichia coli C 165): 200 mg/kg; ED50 [12]: 10 mg/kg; antibiotic activity of the electropherogram spot [11]: one spot with antibiotic activity
